Experimental data taken from patent publication US11834451B2 (priority 2021, dated 2023).
Like-named read-outs stand apart in the source and are kept apart here.

Legend:
[1] = tested on: EV-D68; experiment: microbe, parasite or virus in culture; assay type: cell-based, enterovirus D68 (EV-D68); conditions: Enterovirus D, EVD68, RD
[2] = molecular target: CVB3 Nancy 2C protein (Coxsackievirus B3, UniProt P03313); assay type: binding
[3] = tested on: EV-D68, EV-A71, and CVB3; experiment: organism not typed; assay type: cell-based; conditions: for EC50: RD, read-out: EC50 values range against all EV-D68 and EV-A71 strains tested
[4] = tested on: EV-A71; experiment: microbe, parasite or virus in culture; assay type: cell-based, enterovirus A71 (EV-A71); conditions: Enterovirus A, EVA71, RD
[5] = tested on: CVB3 Nancy virus; experiment: microbe, parasite or virus in culture; assay type: cell-based, coxsackievirus B3 (CVB3); conditions: Enterovirus B, CVB3, Vero, read-out: EC50, Anti-CVB3 in Vero cells
[6] = in vitro; conditions: human
[7] = tested on: EV-A71 Tainan/4643/1998 2C protein; assay type: binding
[8] = tested on: Vero cells; conditions: African green monkey
[9] = tested on: EV-D68 US/MO/14-18947; experiment: microbe, parasite or virus in culture; assay type: cell-based, enterovirus D68 (EV-D68); conditions: for EC50: Enterovirus D, EVD68, read-out: EC50, viral replication in neuronal cells (immunofluorescence, anti-VP1)
[10] = tested on: RD cells; conditions: human
[11] = read-out: EC50, Anti-EV-D68 US/KY/14-18953 in RD cells
[12] = read-out: EC50, EV-D68 US/IL/14-18952 (Clade B2)
[13] = read-out: EC50, EV-D68 US/IL/14-18956 (Clade B2)
[14] = read-out: EC50, EV-D68 US/KY/14-18953 (Clade D)
[15] = read-out: EC50, EV-D68 US/MO/14-18947 (Clade B1)
[16] = read-out: EC50, EV-D68 US/MO/14-18949 (Clade B1)
[17] = read-out: EC50, Anti-EV-A71 Tainan/4643/1998 in RD cells
[18] = read-out: EC50, EV-A71 Tainan/4643/1998
[19] = read-out: EC50, EV-A71 USA/CT/2016-19519
[20] = CC50 (EV-A71 USA/CT/2016-19519)
[21] = CC50 (EV-D68 US/IL/14-18952 row group)
[22] = CC50 (EV-D68 US/IL/14-18956 row group)
[23] = CC50 (EV-D68 US/KY/14-18953 row group)
[24] = CC50 (EV-D68 US/MO/14-18947 row group)
[25] = CC50 (EV-D68 US/MO/14-18949 row group)
[26] = CC50, in RD cells (Anti-EV-A71)
[27] = CC50, in RD cells (Anti-EV-D68)

Chain of CVB3 Nancy 2C protein (P03313 1101-1429 limits assumed): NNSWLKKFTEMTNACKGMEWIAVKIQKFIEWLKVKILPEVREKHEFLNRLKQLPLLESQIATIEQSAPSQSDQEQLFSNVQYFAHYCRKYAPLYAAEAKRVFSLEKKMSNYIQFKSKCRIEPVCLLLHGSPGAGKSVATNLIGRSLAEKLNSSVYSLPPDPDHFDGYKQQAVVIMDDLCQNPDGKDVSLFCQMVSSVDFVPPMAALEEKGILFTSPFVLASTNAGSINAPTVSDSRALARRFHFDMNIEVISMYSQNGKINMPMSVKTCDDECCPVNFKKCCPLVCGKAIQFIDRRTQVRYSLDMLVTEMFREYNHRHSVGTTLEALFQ

Row | SMILES | EC50 [1, 11] | EC50 [4, 17] | EC50 [5] | CC50 [6, 26] | CC50 [8] | CC50 [10] | other results
1 | CC(C)n1ncc2c(C(=O)NCCN(C)C)cc(C3CC3)nc21 [Compound 7d, 6-cyclopropyl-N-[2-(dimethylamino)ethyl]-1-(propan-2-yl)-1H-pyrazolo[3,4-b]pyridine-4-carboxamide] | 100 nM | 800 nM | 200 nM | 200000 nM |  |  | EC50 [1, 12]: 40 nM; EC50 [1, 13]: 40 nM; EC50 [1, 14]: 100 nM; EC50 [1, 15]: 100 nM; EC50 [1, 16]: 100 nM; binding to CVB3 2C protein [2]: dose-response binding; EC50 values in words (summary across viruses) [3]: nanomolar range; EC50 [3]: 40 to 100 nM; EC50 ([4]; read-out: EC50, EV-A71 A71 MP4): 100 nM; EC50 [4, 18]: 100 nM; EC50 [4, 19]: 60 nM; CC50 ([6]; CC50 (EV-A71 Tainan/4643/1998)): 200000 nM; CC50 [6, 20]: 200000 nM; CC50 [6, 21]: 200000 nM; CC50 [6, 22]: 200000 nM; CC50 [6, 23]: 200000 nM; CC50 [6, 24]: 200000 nM; CC50 [6, 25]: 200000 nM; CC50 [6, 27]: 200000 nM; binding to EV-A71 2C protein [7]: dose-response binding
2 | CNCCNC(=O)c1cc(C2CC2)nc2c1cnn2C(C)C [Compound 7h, 6-cyclopropyl-N-[2-(methylamino)ethyl]-1-(propan-2-yl)-1H-pyrazolo[3,4-b]pyridine-4-carboxamide] | 200 nM | 200 nM | 200 nM | 236000 nM | > 100000 nM |  | EC50 [1, 12]: 200 nM; EC50 [1, 13]: 200 nM; EC50 [1, 14]: 200 nM; EC50 [1, 15]: 200 nM; EC50 [1, 16]: 200 nM; EC50 [3]: 60 to 300 nM; EC50 ([4]; read-out: EC50, EV-A71 A71 MP4): 300 nM; EC50 [4, 18]: 200 nM; EC50 [4, 19]: 100 nM; CC50 ([6]; CC50 (EV-A71 Tainan/4643/1998)): 236000 nM; CC50 [6, 20]: 236000 nM; CC50 [6, 21]: 236000 nM; CC50 [6, 22]: 236000 nM; CC50 [6, 23]: 236000 nM; CC50 [6, 24]: 236000 nM; CC50 [6, 25]: 236000 nM; CC50 [6, 27]: 236000 nM; EC50 [9]: 70 nM
3 | CC(C)c1cc(C(=O)NCCN(C)C)c2cnn(C(C)C)c2n1 [Compound 10a, N-[2-(dimethylamino)ethyl]-1,6-bis(propan-2-yl)-1H-pyrazolo[3,4-b]pyridine-4-carboxamide] | 100 nM | 100 nM | 40 nM |  | > 300000 nM |  | EC50 [1, 12]: 90 nM; EC50 [1, 13]: 70 nM; EC50 [1, 14]: 100 nM; EC50 [1, 15]: 70 nM; EC50 [1, 16]: 80 nM; EC50 [3]: 60 to 300 nM; EC50 ([4]; read-out: EC50, EV-A71 A71 MP4): 200 nM; EC50 [4, 18]: 200 nM; EC50 [4, 19]: 60 nM; EC50 [9]: 30 nM
4 | CC(CN(C)C)NC(=O)c1cc(C(C)C)nc2c1cnn2C(C)C (stereo not drawn) [Compound 10c, N-[1-(dimethylamino)propan-2-yl]-1,6-bis(propan-2-yl)-1H-pyrazolo[3,4-b]pyridine-4-carboxamide] | 100 nM | 1000 nM | 100 nM | 70300 nM |  | > 100000 nM | 
5 | CNCCNC(=O)c1cc(C(C)C)nc2c1cnn2C(C)C [Compound 10d, N-[2-(methylamino)ethyl]-1,6-bis(propan-2-yl)-1H-pyrazolo[3,4-b]pyridine-4-carboxamide] | 400 nM | 100 nM | 300 nM | > 100000 nM |  | > 100000 nM | 
6 | Cc1cc(C(=O)NC2CCN(C)C2)c2cnn(C(C)C)c2n1 (stereo not drawn) [Compound 12b, 6-methyl-N-(1-methylpyrrolidin-3-yl)-1-(propan-2-yl)-1H-pyrazolo[3,4-b]pyridine-4-carboxamide] | 1800 nM | 500 nM | 800 nM | > 300000 nM | > 300000 nM | > 300000 nM | 
7 | Cc1cc(C(=O)NC2CN(C)C2)c2cnn(C(C)C)c2n1 [Compound 12c, 6-methyl-N-(1-methylazetidin-3-yl)-1-(propan-2-yl)-1H-pyrazolo[3,4-b]pyridine-4-carboxamide] | 11300 nM | 7300 nM | 3800 nM | > 300000 nM | > 300000 nM | > 300000 nM | 
8 | CNCCNC(=O)c1cc(C)nc2c1cnn2C(C)C [Compound 12d, 6-methyl-N-(methylamino)ethyl-1-(propan-2-yl)-1H-pyrazolo[3,4-b]pyridine-4-carboxamide] | 2300 nM | 500 nM | 1400 nM | > 300000 nM | > 300000 nM | > 300000 nM | 
9 | Cc1cc(C(=O)NCCN)c2cnn(C(C)C)c2n1 [Compound 12e, N-(2-aminoethyl)-6-methyl-1-(propan-2-yl)-1H-pyrazolo[3,4-b]pyridine-4-carboxamide] | 4700 nM | 700 nM | 3800 nM | > 300000 nM | > 300000 nM | > 300000 nM | 
10 | CCn1ncc2c(C(=O)NCCN(C)C)cc(C)nc21 [Compound 15a, N-[2-(dimethylamino)ethyl]-1-ethyl-6-methyl-1H-pyrazolo[3,4-b]pyridine-4-carboxamide] | 18300 nM |  |  |  |  | > 300000 nM | 
11 | CCn1ncc2c(C(=O)NCCNC)cc(C)nc21 [Compound 15b, 1-ethyl-6-methyl-N-[2-(methylamino)ethyl]-1H-pyrazolo[3,4-b]pyridine-4-carboxamide] | 58400 nM | > 20000 nM |  |  |  | > 300000 nM | 
12 | CN(C)CCNC(=O)c1cc(C2CC2)nc2c1cnn2C [Compound 17, 6-cyclopropyl-N-[2-(dimethylamino)ethyl]-1-methyl-1H-pyrazolo[3,4-b]pyridine-4-carboxamide] |  |  |  |  |  | > 300000 nM | 
13 | Cc1cc(CCCOc2c(C)cc(-c3noc(C(F)(F)F)n3)cc2C)on1 [pleconaril, reference compound] |  |  |  |  |  |  | viral replication (VP1 fluorescence signal) ([9]; at 50 μM): completely abolished viral replication
